# According to US8883841B2, “Oncogenic ras-specific cytotoxic compound and methods of use thereof” (The Board of Regents of the University of Texas System, priority 2005, dated 2014):
# Key:
# A498 = assay: NCI in-vitro testing, A498 (Renal Cancer)
# MDA-MB-435 = assay: NCI in-vitro testing, MDA-MB-435 (Breast Cancer)
# HCT-15 = assay: NCI in-vitro testing, HCT-15 (Colon Cancer)
# RPMI-8226 = assay: NCI in-vitro testing, RPMI-8226 (Leukemia)
# H460 cells = assay: cells; details: Homo sapiens, NCI-H460, read-out: IC50 (−LogM), H460, Lung (converted)
# LOX IMVI = assay: NCI in-vitro testing, LOX IMVI (Melanoma)
# [1] = system: panel of 60 cancer cell lines; assay: NCI Developmental Therapeutics Program in-vitro testing, panel of 60 cancer cell lines (whole panel); type: cell-based; details: leukemia, non small lung, colon, melanoma, ovarian, renal, breast
# MOLT-4 = assay: NCI in-vitro testing, MOLT-4 (Leukemia)
# HCC-2998 = assay: NCI in-vitro testing, HCC-2998 (Colon Cancer)
# CCRF-CEM = assay: NCI in-vitro testing, CCRF-CEM (Leukemia)
# NCI-H522 = assay: NCI in-vitro testing, NCI-H522 (Non-Small Cell Lung Cancer)
# 786-0 = assay: NCI in-vitro testing, 786-0 (Renal Cancer)
# HCT-116 = assay: NCI in-vitro testing, HCT-116 (Colon Cancer)
# KM12 = assay: NCI in-vitro testing, KM12 (Colon Cancer); details: KM12
# NCI/ADR-RES = assay: NCI in-vitro testing, NCI/ADR-RES (Breast Cancer)
smiles,measurement,setting,value
"O=Cc1cn(Cc2cccc(Cl)c2)c2ccccc12 [Oncrasin K027, 1-(3-chlorobenzyl)-1H-indole-3-carbaldehyde]",TGI,A498; A498,3.33E−8 Molar
same,Percent Growth,"A498; A498, Log10 Concentration −4.0 Molar",−94%
same,Percent Growth,"A498; A498, Log10 Concentration −5.0 Molar",−95%
same,Percent Growth,"A498; A498, Log10 Concentration −6.0 Molar",−87%
same,Percent Growth,"A498; A498, Log10 Concentration −7.0 Molar",−66%
same,Percent Growth,"A498; A498, Log10 Concentration −8.0 Molar",61%
same,GI50,"A498; Homo sapiens, A498",12.4 nM
same,CC50,"A498; Homo sapiens, A498, read-out: LC50",89 nM
same,GI50,"MDA-MB-435; Homo sapiens, MDA-MB-435",1930 nM
same,CC50,"MDA-MB-435; Homo sapiens, MDA-MB-435, read-out: LC50",> 100 µM
same,TGI,MDA-MB-435; MDA-MB-435,5.47E−5 Molar
same,Percent Growth,"MDA-MB-435; MDA-MB-435, Log10 Concentration −4.0 Molar",−29%
same,Percent Growth,"MDA-MB-435; MDA-MB-435, Log10 Concentration −5.0 Molar",81%
same,Percent Growth,"MDA-MB-435; MDA-MB-435, Log10 Concentration −6.0 Molar",96%
same,Percent Growth,"MDA-MB-435; MDA-MB-435, Log10 Concentration −7.0 Molar",100%
same,Percent Growth,"MDA-MB-435; MDA-MB-435, Log10 Concentration −8.0 Molar",102%
same,TGI,HCT-15; HCT-15,2.58E−6 Molar
same,Percent Growth,"HCT-15; HCT-15, Log10 Concentration −4.0 Molar",−31%
same,Percent Growth,"HCT-15; HCT-15, Log10 Concentration −5.0 Molar",21%
same,Percent Growth,"HCT-15; HCT-15, Log10 Concentration −6.0 Molar",69%
same,Percent Growth,"HCT-15; HCT-15, Log10 Concentration −7.0 Molar",90%
same,Percent Growth,"HCT-15; HCT-15, Log10 Concentration −8.0 Molar",99%
same,GI50,"HCT-15; Homo sapiens, HCT-15",25.2 nM
same,CC50,"HCT-15; Homo sapiens, HCT-15, read-out: LC50",> 100 µM
same,GI50,"RPMI-8226; Homo sapiens, RPMI-8226",372 nM
same,CC50,"RPMI-8226; Homo sapiens, RPMI-8226, read-out: LC50",> 100 µM
same,TGI,RPMI-8226; RPMI-8226,3.19E−6 Molar
same,Percent Growth,"RPMI-8226; RPMI-8226, Log10 Concentration −4.0 Molar",−35%
same,Percent Growth,"RPMI-8226; RPMI-8226, Log10 Concentration −5.0 Molar",−23%
same,Percent Growth,"RPMI-8226; RPMI-8226, Log10 Concentration −6.0 Molar",24%
same,Percent Growth,"RPMI-8226; RPMI-8226, Log10 Concentration −7.0 Molar",85%
same,Percent Growth,"RPMI-8226; RPMI-8226, Log10 Concentration −8.0 Molar",119%
same,IC50,H460 cells,3.98 nM
same,TGI,LOX IMVI,1.68E−5 Molar
same,GI50,LOX IMVI; Homo sapiens,44.8 nM
same,CC50,"LOX IMVI; Homo sapiens, read-out: LC50",47.2 µM
same,Percent Growth,LOX IMVI; Log10 Concentration −4.0 Molar,−86%
same,Percent Growth,LOX IMVI; Log10 Concentration −5.0 Molar,25%
same,Percent Growth,LOX IMVI; Log10 Concentration −6.0 Molar,96%
same,Percent Growth,LOX IMVI; Log10 Concentration −7.0 Molar,95%
same,Percent Growth,LOX IMVI; Log10 Concentration −8.0 Molar,102%
same,anticancer spectrum in NCI panel,[1],active in a number of cancer cell lines
same,CC50,"MOLT-4; Homo sapiens, MOLT-4, read-out: LC50",82.6 µM
same,TGI,MOLT-4; MOLT-4,3.82E−5 Molar
same,Percent Growth,"MOLT-4; MOLT-4, Log10 Concentration −4.0 Molar",−62%
same,Percent Growth,"MOLT-4; MOLT-4, Log10 Concentration −5.0 Molar",87%
same,Percent Growth,"MOLT-4; MOLT-4, Log10 Concentration −6.0 Molar",109%
same,Percent Growth,"MOLT-4; MOLT-4, Log10 Concentration −7.0 Molar",102%
same,Percent Growth,"MOLT-4; MOLT-4, Log10 Concentration −8.0 Molar",114%
same,TGI,HCC-2998; HCC-2998,2.04E−5 Molar
same,Percent Growth,"HCC-2998; HCC-2998, Log10 Concentration −4.0 Molar",−97%
same,Percent Growth,"HCC-2998; HCC-2998, Log10 Concentration −5.0 Molar",43%
same,Percent Growth,"HCC-2998; HCC-2998, Log10 Concentration −6.0 Molar",62%
same,Percent Growth,"HCC-2998; HCC-2998, Log10 Concentration −7.0 Molar",86%
same,Percent Growth,"HCC-2998; HCC-2998, Log10 Concentration −8.0 Molar",85%
same,GI50,"HCC-2998; Homo sapiens, HCC 2998",4.33 µM
same,CC50,"HCC-2998; Homo sapiens, HCC 2998, read-out: LC50",46.2 µM
same,GI50,CCRF-CEM; Homo sapiens,1740 nM
same,CC50,"CCRF-CEM; Homo sapiens, read-out: LC50",14.8 µM
same,Percent Growth,CCRF-CEM; Log10 Concentration −4.0 Molar,−67%
same,Percent Growth,CCRF-CEM; Log10 Concentration −5.0 Molar,−47%
same,Percent Growth,CCRF-CEM; Log10 Concentration −6.0 Molar,87%
same,Percent Growth,CCRF-CEM; Log10 Concentration −7.0 Molar,97%
same,Percent Growth,CCRF-CEM; Log10 Concentration −8.0 Molar,100%
same,TGI,NCI-H522,1.24E−5 Molar
same,GI50,"NCI-H522; Homo sapiens, NCI-H522",2410 nM
same,CC50,"NCI-H522; Homo sapiens, NCI-H522, read-out: LC50",51 µM
same,Percent Growth,NCI-H522; Log10 Concentration −4.0 Molar,−74%
same,Percent Growth,NCI-H522; Log10 Concentration −5.0 Molar,7%
same,Percent Growth,NCI-H522; Log10 Concentration −6.0 Molar,76%
same,Percent Growth,NCI-H522; Log10 Concentration −7.0 Molar,82%
same,Percent Growth,NCI-H522; Log10 Concentration −8.0 Molar,91%
same,TGI,786-0; 785-0,2.19E−5 Molar
same,Percent Growth,"786-0; 785-0, Log10 Concentration −4.0 Molar",−52%
same,Percent Growth,"786-0; 785-0, Log10 Concentration −5.0 Molar",27%
same,Percent Growth,"786-0; 785-0, Log10 Concentration −6.0 Molar",70%
same,Percent Growth,"786-0; 785-0, Log10 Concentration −7.0 Molar",88%
same,Percent Growth,"786-0; 785-0, Log10 Concentration −8.0 Molar",69%
same,GI50,"786-0; Homo sapiens, 786-0",3.4 µM
same,CC50,"786-0; Homo sapiens, 786-0, read-out: LC50",84.7 µM
same,TGI,HCT-116; HCT-116,1.06E−5 Molar
same,Percent Growth,"HCT-116; HCT-116, Log10 Concentration −4.0 Molar",−84%
same,Percent Growth,"HCT-116; HCT-116, Log10 Concentration −5.0 Molar",2%
same,Percent Growth,"HCT-116; HCT-116, Log10 Concentration −6.0 Molar",10%
same,Percent Growth,"HCT-116; HCT-116, Log10 Concentration −7.0 Molar",30%
same,Percent Growth,"HCT-116; HCT-116, Log10 Concentration −8.0 Molar",68%
same,GI50,"HCT-116; Homo sapiens, HCT-116",29.4 nM
same,CC50,"HCT-116; Homo sapiens, HCT-116, read-out: LC50",60.6 µM
same,TGI,KM12,4.15E−5 Molar
same,Percent Growth,KM12; Log10 Concentration −4.0 Molar,−54%
same,Percent Growth,KM12; Log10 Concentration −5.0 Molar,87%
same,Percent Growth,KM12; Log10 Concentration −6.0 Molar,102%
same,Percent Growth,KM12; Log10 Concentration −7.0 Molar,113%
same,Percent Growth,KM12; Log10 Concentration −8.0 Molar,108%
same,TGI,NCI/ADR-RES,3.32E−6 Molar
same,GI50,NCI/ADR-RES; Homo sapiens,9.22 µM
same,CC50,"NCI/ADR-RES; Homo sapiens, read-out: LC50",> 100 µM
same,Percent Growth,NCI/ADR-RES; Log10 Concentration −4.0 Molar,−45%
same,Percent Growth,NCI/ADR-RES; Log10 Concentration −5.0 Molar,48%
same,Percent Growth,NCI/ADR-RES; Log10 Concentration −6.0 Molar,85%
same,Percent Growth,NCI/ADR-RES; Log10 Concentration −7.0 Molar,94%
same,Percent Growth,NCI/ADR-RES; Log10 Concentration −8.0 Molar,103%
